The text below walks through data of the METLIN SMRT retention time set (Domingo-Almenara et al. 2019).

Structures are written as SMILES.

The nature of this series: gradient 5% acetonitrile 3 min, to 50% in 2 min, to 85% in 15 min, held 3 min, 100 µL/min. The conditions noted are these: column: Zorbax Extend-C18 2.1 x 50 mm; eluents: water / acetonitrile, 0.1% formic acid. The gist of the method: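 Using water and acetonitrile that each contained 0.1% formic acid, mixtures of ~100 pure standards were separated at 100 μL/min on a Zorbax Extend-C18 column (2.1 × 50 mm, 1.8 μm). The HPLC fed a quadrupole time-of-flight mass spectrometer working in positive and negative ionization mode, with dead and dwell volumes of 40 μL and 900 μL. Data were acquired over 3 months. Retention time was read from computationally picked adduct peaks after manual inspection of each.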
As for `CCc1cc(=O)n(CC(=O)NCc2ccc(F)cc2)c(N)n1`, the RP-LC retention time came out at 793 s.
`COc1ccc2c(c1)C1(CCN(C(=O)Nc3ccccc3C)C1)C(=O)N2` (centres undefined) returned an RP-LC retention time of 707 s.
`O=C(NC1CCCCC1)N1CCC(c2nc(C3CCOCC3)no2)CC1` returned an RP-LC retention time of 733 s.
In turn, `Cn1c(CN2CCN(C(=O)Nc3ccc4c(c3)OCO4)CC2)nc2cc(C(=O)N3CCCC3)ccc21` came in with an RP-LC retention time of 607 s.
In the case of `Cc1c(Cl)cccc1NC(=O)CSc1ccc(N2CCCC(C(=O)NC3CC3)C2)nn1` (centres undefined), the RP-LC retention time came out at 645 s.
In turn, `O=C(CN1C(=O)COc2ccccc21)N1CCN(c2ccc(-c3noc(C4CCC4)n3)cc2)CC1` displayed an RP-LC retention time of 1000 s.
`O=C(NCCn1c(=O)n(Cc2ccccc2)c2cccnc21)c1ccco1` gave an RP-LC retention time of 725 s.
The compound `COc1cc(C(=O)N2CCC(CC(=O)N3CCN(c4ccccn4)CC3)CC2)cc(OC)c1OC` displayed an RP-LC retention time of 595 s.
`Cn1c(=O)c2c(nc3n2CC(=O)N(CCc2ccccc2)C3)n(C)c1=O` showed an RP-LC retention time of 657 s.
On to `Nc1nc(F)nc2c1ncn2[C@@H]1O[C@H](COP(=O)(O)O)[C@@H](O)[C@@H]1O`, for which the RP-LC retention time amounted to 534 s.
To `Cc1ccc(C(=O)N2CCC(n3c(=O)n(C)c4cncnc43)CC2)s1` belongs 659 s; to `CCN1CCN(c2cc(C(=O)O)c3cc(NC(=O)C(C)(C)C)ccc3n2)CC1`, 564 s; to `O=C(Cn1ccn2nc(-c3ccc(F)cc3)c(CO)c2c1=O)Nc1cc(F)ccc1F`, 843 s.
For the compound `CCNC(=O)c1cnn(-c2ccc(-c3nc(C(C)C)no3)cn2)c1C`, the RP-LC retention time was determined as 983 s.
In turn, `O=C(CN1C(=O)CN(C(=O)NCc2ccccc2)c2ccccc21)NC1CCCc2ccccc21` (centres undefined) yielded an RP-LC retention time of 892 s.
Consider `Cc1cccc(N2CCN(Cc3nc(-c4ccc(N5CCCCC5)nc4)no3)CC2)c1C`, for which the RP-LC retention time turned out to be 1160 s.
`CN(CC1(C)CCOCC1)C(=O)COc1ccc(F)cc1` had an RP-LC retention time of 770 s.
`CCCCc1ccc(NC(=O)N2CC(c3nc(C)no3)C3(CCOCC3)C2)cc1` (centres undefined) yielded an RP-LC retention time of 914 s.
Regarding `COC(=O)c1cc(S(=O)(=O)N2CCCC2C(=O)Nc2ccc(C)c(C)c2)cn1C` (centres undefined), the RP-LC retention time was 939 s.
For the compound `CCn1c(=O)c(N2CCC(NC(=O)Nc3cccc(Br)c3)CC2)nc2ccccc21`, the RP-LC retention time turned out to be 1040 s.
To `Cc1cccc(-c2noc(Cn3ccn(-c4ccc(Cl)cc4)c(=O)c3=O)n2)c1` belongs 929 s; to `CCOc1cccc2cc(C(=O)Nc3ccc(S(N)(=O)=O)cc3)oc12`, 747 s; to `Cn1cc(-c2ccncc2)cc1C(=O)N1CCC2(CC1)OCCO2`, 562 s.
The compound `CC1=C(c2cccc(Cl)c2)S(=O)(=O)N=C1N1CCCN(C(=O)NC(C)(C)C)CC1` came in with an RP-LC retention time of 883 s.
Regarding `CCOC(=O)c1c(C)[nH]c(CCC(=O)NCCN2CCN(C)CC2)c1C`, the RP-LC retention time was 579 s.
As for `Cn1cnc2c(C(=O)N3CCN(C4CCCCC4)CC3)nn(-c3ccc(Cl)cc3)c2c1=O`, the RP-LC retention time is 654 s.
Turning to `O=C(COc1ccc(C(=O)N2CCN(CCc3ccccc3)CC2)cc1)C1CC1`, the RP-LC retention time stood at 583 s.
`Cc1ccccc1NC(=O)CN1C(=O)CCc2cc(Br)ccc21` had an RP-LC retention time of 884 s.
For the compound `CC(C)c1csc(-c2csc(S(=O)(=O)N3CCN(c4ccccc4F)CC3)c2)n1`, the RP-LC retention time was found to be 1330 s.
For `CCn1ccc(C(=O)N2CCn3c(nnc3-c3ccccc3)C2)n1`, the RP-LC retention time is 604 s.
To `Cc1nc(-c2csc(S(=O)(=O)NC3CCCCCC3)c2)sc1C` belongs 1150 s; to `CCOc1ccc(-n2c(=O)c3sccc3n(Cc3nc(-c4ccc(C)cc4)no3)c2=O)cc1`, 1090 s; to `COc1ccc(NC(=O)COc2cc(C)nc(N3CCCC3)n2)cc1Cl`, 653 s.
The compound `Fc1ccc(-c2nnc(Cc3nc(Cc4ccccc4)no3)o2)cc1` yielded an RP-LC retention time of 931 s.
Compound `O=c1c2oc3ccccc3c2ncn1Cc1nc(-c2ccc(F)c(Cl)c2)no1` yielded an RP-LC retention time of 1050 s.
As to `O=C(Nc1nnc(C2CC(=O)N(c3ccc(Cl)cc3)C2)o1)c1ccc(C(F)(F)F)cc1` (centres undefined), the RP-LC retention time was 884 s.
To `O=C(Cn1cccc1-c1nc(-c2ccc(Cl)cc2)cs1)NCC1CCCO1` (centres undefined) belongs 1030 s.
For `Fc1ccccc1-c1ccc(CNCc2ccccn2)o1`, the RP-LC retention time worked out at 655 s.
In the case of `Cc1nc2cccnc2n1CC1CCCN(S(=O)(=O)c2ccc3c(c2)OCCO3)C1` (centres undefined), the RP-LC retention time amounted to 672 s.
Regarding `CCc1nc2c(NC(=O)c3ccccc3C(F)(F)F)cccn2n1`, the RP-LC retention time worked out at 866 s.
Compound `Cc1ccc(NC(=O)CCc2nc(CSc3nnc(-c4ccccc4)o3)no2)cc1Cl` gave an RP-LC retention time of 1030 s.
For `COc1ccccc1NC(=O)N1CC(C)Oc2ccc(C)cc21` (centres undefined), the RP-LC retention time is 1130 s.
To `Cc1ccc(Cn2nc3c(S(=O)(=O)N4CCCC4)cccn3c2=O)cc1` belongs 880 s; to `O=C(NC1(c2nc(-c3cccnc3)no2)CCCCC1)c1n[nH]c2c1CCCC2`, 854 s; to `Cc1cc(F)ccc1NC(=O)Cn1c(=O)cc(-c2nc(C(C)C)no2)c2ccccc21`, 996 s.
Compound `CC(C)c1ccc(N2CC(c3nc(-c4ccc5c(c4)OCO5)no3)CC2=O)cc1` (centres undefined) gave an RP-LC retention time of 1100 s.
In turn, `CCOC(=O)C1=CN(C)S(=O)(=O)N=C1C` displayed an RP-LC retention time of 695 s.
`COc1ccc(NS(=O)(=O)c2cc(-c3[nH]ncc3C(=O)N3CCCC3)oc2C)c(C)c1` displayed an RP-LC retention time of 707 s.
As to `CCCCCCCCCC(=O)NC(CN1CCOCC1)[C@H](O)c1ccccc1` (some centres undefined), the RP-LC retention time was 888 s.
To `Cc1cccc(-c2nnc(-c3nc(NCCN4CCOCC4)c4ccccc4n3)o2)c1` belongs 662 s; to `Cc1ccc2c(c1)C(=O)NC1(CCN(C(=O)Cc3ccccc3Cl)CC1)N2C`, 841 s.
To `Nc1cc(C2CCN(S(=O)(=O)c3cccc4cccnc34)CC2)no1` belongs 702 s.
To `CCOc1ccc(-c2noc(CN3N=NC4C(=O)N(c5ccc(C(C)C)cc5)C(=O)C43)n2)cc1OC` (centres undefined) belongs 1060 s.
Take `Cc1c(-c2noc(-c3ccc(F)cc3)n2)nnn1-c1ccc(F)cc1`: the RP-LC retention time was determined as 1060 s.
Turning to `O=C(Nc1cccc(-c2ccc(N3CCCC3)nn2)c1)c1ccccc1F`, the RP-LC retention time came out at 647 s.
On to `CCc1nc(-c2cc(S(=O)(=O)Nc3ccc(F)cc3Cl)c(C)s2)cs1`, for which the RP-LC retention time came out at 1130 s.
`O=C([C@@H]1C[C@H](F)CN1S(=O)(=O)c1ccc(C(F)(F)F)cc1)N1CCCCC1` returned an RP-LC retention time of 885 s.
On to `CC(C)(C)CC(=O)NCCc1noc(C2CC2)n1`, for which the RP-LC retention time is 713 s.
On to `CC(C)N1C(=O)C(C)(C(=O)NC2CCCCCC2)Oc2cccnc21` (centres undefined), for which the RP-LC retention time was found to be 1080 s.
